Values of other authors in article PMC2788793 (Molecular immunology, 2008).

Molecular target: mouse H2-Kb molecule (Mus musculus, UniProt P01901)
Details: ref Apostolopoulos et al., 2003

Chain of mouse H2-Kb molecule (P01901 whole entry, looked up): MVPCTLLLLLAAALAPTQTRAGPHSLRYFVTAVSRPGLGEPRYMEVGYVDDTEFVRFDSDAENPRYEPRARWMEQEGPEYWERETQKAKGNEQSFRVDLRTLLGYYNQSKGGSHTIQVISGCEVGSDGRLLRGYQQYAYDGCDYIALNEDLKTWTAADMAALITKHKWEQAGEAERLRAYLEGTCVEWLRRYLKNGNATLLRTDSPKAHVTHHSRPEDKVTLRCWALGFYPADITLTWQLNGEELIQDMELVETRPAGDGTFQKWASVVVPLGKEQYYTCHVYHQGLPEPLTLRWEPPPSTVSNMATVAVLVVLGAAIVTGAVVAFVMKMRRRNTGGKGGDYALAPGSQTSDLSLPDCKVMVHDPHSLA

SAPDT(GalNAc-Gal)RPA
Binding to mouse H2-Kb molecule: completely abolished its binding
